Legend:
[1] = tested on: Medicago sativa cv. Regen SY; experiment: atrazine tolerance: rooting and growth of sterile cuttings on sugar-free, hormone-free B5h medium; format: in vivo; details: untransformed control (SY) plant cuttings, Magenta boxes
Text: Under these conditions plant growth depends on photosynthesis for production of energy and carbon.

[2] = tested on: quinone-binding (QB) protein; details: altered QB protein of atrazine resistant weeds; cited from earlier work
plants = details: cited from earlier work

SMILES	atrazine concentration at which cuttings did not root or grow [1]	reduced affinity of altered QB protein for atrazine [2]	herbicidal activity (plants)
CCNc1nc(Cl)nc(NC(C)C)n1 [atrazine, 2-chloro-4-ethylamino-6-isopropylamino-1,3,5-s-triazine]	≥ 500 nM	1000 fold	
CCNc1nc(NC(C)C)[nH]c(=O)n1 [hydroxyatrazine]			no herbicidal activity

Reference: patent publication US6369299B1 (Regents of the University of Minnesota, priority 1999, dated 2002)
